From ChEMBL document CHEMBL1165930, “The anticancer activity of 3- and 10-bromofascaplysins is mediated by caspase-8, -9, -3-dependent apoptosis” (Bioorg Med Chem, 2010)
The source made the active and inactive calls. The calls are words filed in the database; no cut-off is given here.

Columns and labels:
SK-MEL-28 [1] = experiment: Selectivity ratio of INCC50 for human SK-MEL-28 cells to IC50 for human SK-MEL-28 cells; type: functional
[2] = molecular target: Cellular tumor antigen p53 (Mus musculus) (UniProt P02340); experiment: Inhibition of p53-mediated transcriptional activity in mouse JB6 Cl41 cells at 125 to 250 nM after 24 hrs by luciferase reporter gene assay relative to control; type: cell-based
SK-MEL-28 [3] = experiment: Cytotoxicity against human SK-MEL-28 cells after 22 hrs by MTS assay; type: functional, cell-based; details: SK-MEL-28, 22 h
HL-60 [4] = experiment: Induction of apoptosis in human HL60 cells assessed as decrease in procaspase-8 level at 250 nM after 24 hrs by Western blot analysis; type: functional, cell-based
JB6 Cl41 = experiment: Inhibition of EGF-stimulated neoplastic transformation of mouse JB6 Cl41 cells by anchorage-independent soft agar assay; type: functional, cell-based
[5] = Inhibition of EGF-stimulated colony formation in mouse JB6 Cl41 cells by anchorage-independent soft agar assay; type: functional
HL-60 [6] = experiment: Induction of apoptosis in human HL60 cells assessed as decrease in procaspase-9 level at 250 nM after 24 hrs by Western blot analysis; type: functional, cell-based
HL-60 [7] = experiment: Induction of apoptosis in human HL60 cells assessed as total apoptotic cells at 50 to 100 nM after 24 hrs by FITC-conjugated annexin V and propidium iodide staining-based flow cytometry; type: functional
[8] = molecular target: Cellular tumor antigen p53 (Mus musculus) (UniProt P02340); experiment: Inhibition of p53-mediated transcriptional activity in mouse JB6 Cl41 cells after 24 hrs by luciferase reporter gene assay; type: cell-based; details: TDE = time-dependent effect
DLD-1 = experiment: Cytotoxicity against human DLD1 cells after 22 hrs by MTS assay; type: functional, cell-based; details: DLD-1, 22 h
HeLa [9] = experiment: Cytotoxicity against human HeLa cells after 22 hrs by MTS assay; type: functional, cell-based
THP-1 [10] = experiment: Induction of apoptosis in human THP1 cells assessed as early apoptotic cells at 2000 nM after 24 hrs by FITC-conjugated annexin V and propidium iodide staining-based flow cytometry; type: functional
THP-1 [11] = experiment: Induction of apoptosis in human THP1 cells after 24 hrs by FITC-conjugated annexin V and propidium iodide staining-based flow cytometry; type: functional, cell-based
THP-1 [12] = experiment: Induction of apoptosis in human THP1 cells assessed as late apoptotic cells at 2000 nM after 24 hrs by FITC-conjugated annexin V and propidium iodide staining-based flow cytometry; type: functional
[13] = Effect on EGF-stimulated proliferation of ERK2-expressing mouse JB6 Cl41 cells assessed as cell death at 250 nM after 22 hrs by MTS assay; type: functional
[14] = Effect on proliferation of p53-expressing mouse JB6 Cl41 cells assessed as cell viability at 375 to 500 nM after 6 hrs; type: functional
HeLa [15] = experiment: Selectivity ratio of INCC50 for human HeLa cells to IC50 for human HeLa cells; type: functional
HL-60 [16] = experiment: Anticancer activity in human HL60 cells assessed as inhibition of colony formation by anchorage-independent soft agar assay; type: functional
THP-1 [17] = experiment: Induction of apoptosis in human THP1 cells assessed as viable cells at 1000 nM after 24 hrs by FITC-conjugated annexin V and propidium iodide staining-based flow cytometry; type: functional; details: THP-1, 24 h, read-out: Activity
SK-MEL-28 [18] = experiment: Anticancer activity in human SK-MEL-28 cells assessed as inhibition of colony formation by anchorage-independent soft agar assay; type: functional
HL-60 [19] = experiment: Induction of apoptosis in human HL60 cells assessed as decrease in procaspase-3 level at 500 nM after 24 hrs by Western blot analysis; type: functional, cell-based
HL-60 [20] = experiment: Induction of apoptosis in human HL60 cells assessed as decrease in procaspase-9 level at 500 nM after 24 hrs by Western blot analysis; type: functional, cell-based
[21] = molecular target: Transcription factor Jun (Mus musculus) (UniProt P05627); experiment: Induction of AP1-mediated transcriptional activity in mouse JB6 Cl41 cells after 24 hrs by luciferase reporter gene assay; type: cell-based
[22] = molecular target: Cellular tumor antigen p53 (Mus musculus) (UniProt P02340); experiment: Inhibition of p53-mediated transcriptional activity in mouse JB6 Cl41 cells at 125 to 500 nM by luciferase reporter gene assay; type: cell-based; details: TDE = time-dependent effect
HL-60 [23] = experiment: Induction of apoptosis in human HL60 cells assessed as decrease in Bid protein level at 250 nM after 24 hrs by Western blot analysis; type: functional, cell-based
THP-1 [24] = experiment: Induction of apoptosis in human THP1 cells assessed as early apoptotic cells at 500 nM after 24 hrs by FITC-conjugated annexin V and propidium iodide staining-based flow cytometry; type: functional
HL-60 [25] = experiment: Cytotoxicity against human HL60 cells after 22 hrs by MTS assay; type: functional, cell-based; details: HL-60, 22 h
[26] = molecular target: Transcription factor Jun (Mus musculus) (UniProt P05627); experiment: Induction of AP1-mediated transcriptional activity in mouse JB6 Cl41 cells at 125 to 250 nM after 24 hrs by luciferase reporter gene assay relative to control; type: cell-based
[27] = Effect on EGF-stimulated proliferation of JNK1-expressing mouse JB6 Cl41 cells assessed as cell viability at 125 nM after 22 hrs by MTS assay; type: functional; details: JB6 Cl41, 22 h, read-out: Activity
[28] = Cytotoxicity against human SNUC4 cells after 22 hrs by MTS assay; type: functional, cell-based; details: SNU-C4, 22 h
[29] = molecular target: Transcription factor Jun (Mus musculus) (UniProt P05627); experiment: Induction of AP1-mediated transcriptional activity in mouse JB6 Cl41 cells at 125 to 250 nM after 6 hrs by luciferase reporter gene assay relative to control; type: cell-based
HL-60 [30] = experiment: Induction of apoptosis in human HL60 cells assessed as total apoptotic cells at 1000 nM after 24 hrs by FITC-conjugated annexin V and propidium iodide staining-based flow cytometry; type: functional
THP-1 [31] = experiment: Induction of apoptosis in human THP1 cells assessed as non-viable necrotic cells at 1000 nM after 24 hrs by FITC-conjugated annexin V and propidium iodide staining-based flow cytometry; type: functional

Cellular tumor antigen p53 (Mus musculus), sequence (P02340 whole entry): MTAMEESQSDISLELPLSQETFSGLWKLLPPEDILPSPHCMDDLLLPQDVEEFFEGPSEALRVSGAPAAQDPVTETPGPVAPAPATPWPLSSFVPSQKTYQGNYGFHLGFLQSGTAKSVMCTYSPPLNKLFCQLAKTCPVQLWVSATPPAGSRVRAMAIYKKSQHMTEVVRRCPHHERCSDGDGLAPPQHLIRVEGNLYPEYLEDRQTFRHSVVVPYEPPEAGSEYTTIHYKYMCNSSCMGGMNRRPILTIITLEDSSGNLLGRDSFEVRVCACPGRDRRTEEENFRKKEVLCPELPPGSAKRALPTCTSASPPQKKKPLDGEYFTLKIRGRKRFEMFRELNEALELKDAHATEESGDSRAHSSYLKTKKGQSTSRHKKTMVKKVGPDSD
Transcription factor Jun (Mus musculus), sequence (P05627 whole entry): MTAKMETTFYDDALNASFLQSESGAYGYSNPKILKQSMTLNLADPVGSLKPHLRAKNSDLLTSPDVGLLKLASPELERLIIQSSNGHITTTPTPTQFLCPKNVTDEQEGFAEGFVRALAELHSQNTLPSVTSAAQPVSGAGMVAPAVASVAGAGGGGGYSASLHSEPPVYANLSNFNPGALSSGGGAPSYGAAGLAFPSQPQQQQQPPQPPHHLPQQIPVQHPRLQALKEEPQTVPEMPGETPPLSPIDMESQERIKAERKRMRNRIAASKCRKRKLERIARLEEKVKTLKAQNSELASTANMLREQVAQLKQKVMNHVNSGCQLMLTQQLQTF

Work on `O=C1c2ccc(Br)cc2-[n+]2ccc3c([nH]c4ccccc43)c21.[Cl-]` yielded a Selectivity ratio (SK-MEL-28 [1]) of 4.8, an inhibition [2] of 40% and an IC50 (SK-MEL-28 [3]) of 785 nM. For the same molecule, the inhibition (HL-60 [4]) was “Active”, the inhibition (JB6 Cl41) was “Dose-dependent effect” and the INCC50 [5] was 106.4 nM. For the same molecule, the inhibition (HL-60 [6]) was “Active”, the Activity (HL-60 [7]) was 20% and the inhibition [8] was “tde”. For the same molecule, the IC50 (DLD-1) was 243 nM, the IC50 (HeLa [9]) was 337 nM and the Activity (THP-1 [10]) was 25.8%. The Activity (THP-1 [11]) was “Dose-dependent effect”, the Activity (THP-1 [12]) was 25.5% and the Activity [13] was 100%. It also gave an Activity [14] of 50%, a Selectivity ratio (HeLa [15]) of 3.1 and an INCC50 (HL-60 [16]) of 103.5 nM. The viability at 1 µM (THP-1 [17]) was 40.9%, the INCC50 (SK-MEL-28 [18]) was 162.9 nM and the inhibition (HL-60 [19]) was “Active”. For the same molecule, the inhibition (HL-60 [20]) was “Active”, the Activity [21] was “Dose-dependent effect” and the inhibition [22] was “tde”. For the same molecule, the inhibition (HL-60 [23]) was “Active”, the Activity (THP-1 [24]) was 13% and the IC50 (HL-60 [25]) was 549 nM. The fold change (FC) [26] was 1.5, the viability at 0.125 µM [27] was 60% and the IC50 [28] was 238 nM. For the same molecule, the fold change (FC) [29] was 2, the Activity (HL-60 [30]) was 90% and the Activity (THP-1 [31]) was 18%.
